# Publication PMC8107365, “Overlapping Properties of the Short Membrane-Active Peptide BP100 With (i) Polycationic TAT and (ii) α-helical Magainin Family Peptides” (Frontiers in Cellular and Infection Microbiology, 2021)
# “And” between values parts separate entries of the source, which are not always exact repeats. Equal values may be shown once. Read-outs that look alike come from different tables or passages of the source. Marks after values point to notes of the source that are not given here. Where a SMILES comes first, the peptide text is derived from it.
# Key:
# human erythrocytes = assay: Hemolysis assay; details: for HC10, concentration that induced 10% hemolysis: human erythrocytes 0.25% (v/v), Tris buffer pH 7.6/DMSO, 37°C, 20 min, absorbance 540 nm, relative to Triton X-100, up to 100 µM peptide
# Description: The hemolytic effect of the peptides was tested on human erythrocytes as previously described ([Strandberg et al., 2007]). Citrate phosphate dextrose-stabilized blood bags with erythrocyte suspensions were obtained from the blood bank of the local municipal hospital (Karlsruhe, Germany). Erythrocytes were washed twice with 9-fold excess of Tris buffer (172 mM, pH 7.6 at 0°C) followed by centrifugation at 600 g for 10 min at 4°C, and kept on ice in between. After the second wash, the erythrocytes were transferred from the sediment to a fresh tube with the same precooled buffer to be diluted to about 10% (v/v) hematocrit, giving the stock cell suspension, which was kept on ice. […] The stock cell suspension was further diluted to about 0.5% (v/v). After preincubating for 3 min, 200 μL of the resulting erythrocyte dilution was transferred to each tube of the corresponding peptide serial dilution, to a final concentration of 0.25% (v/v). For each dilution series, zero hemolysis was obtained by adding the erythrocytes to Tris buffer (pH 7.6 at 37°C)/dimethylsulfoxide (9:1 v/v) and measuring the background lysis in the absence of peptide. For 100% hemolysis, the erythrocytes were added to 0.2% of Triton X-100 (Sigma, Germany) in the same buffer, giving a final concentration of 0.1% Triton X-100. Incubation was performed at 37°C for 20 min with gentle shaking. The tubes were centrifuged at 20 000 g for 5 min to pellet the cells, and the absorbance at 540 nm was recorded against water. The percentage lysis was then calculated relative to 0% lysis with buffer and 100% lysis by Triton X-100. The absorbance measurement was repeated three times, and the averaged values are used.
# HeLa cells = assay: Toxicity against HeLa cells (calcein AM, fluorescence microscopy); type: cell-based, human; details: for Toxicity (HeLa): overview Figure 5; for HeLa cells: lowest tested concentration where dead HeLa cells were observed: peptides N-terminally labeled with Fluka 630 red, 30 min, 37°C, HKR buffer pH 7.4, calcein AM, confocal microscopy
# Description: HeLa TK A549 cells (from DSMZ, Braunschweig, Germany) were cultivated in minimal essential medium (MEM) with 10% fetal calf serum (FCS) (PAA, Cöble, Germany), and Glutamax (Invitrogen, Karlsruhe, Germany), without antibiotics. Cell density after incubation over night was 30000 cells/chamber in 300 µL medium. For experiments, the medium was removed and cells incubated with peptides at the respective concentration in HEPES Krebs Ringer (HKR) buffer, which consists of 5 mM HEPES, 137 mM NaCl, 2.68 mM KCl, 2.05 mM MgCl2, 1.8 mM CaCl2, and 5.55 mM glucose, pH 7.4. After 30 min (37°C, 5% CO2) cells were washed with HKR buffer, and the behavior of cells at variable peptide concentration examined. A confocal microscope type SP 5 from Leica was used for fluorescence microscopy. The 488 nm line of an argon laser was used for excitation of calcein and the 633 nm line of a helium-neon laser was used for excitation of Fluka 630 red. For kinetic experiments, cells were washed after incubation for 30 minutes and placed into MEM medium at 37°C, and studied after 1, 2, 4, 8 and 24 h. Five minutes before microscopy, calcein AM (Fluka, Buchs, Switzerland) was added to a final concentration of 1 nM to examine cell viability. To avoid artifacts, cells were not fixed.
# [1] = system: Enterobacter helveticus (DSM 18396)
# Description: (§1) The antimicrobial activity of BP100 was tested using a standard MIC dilution assay, as previously described ([Strandberg et al., 2007]; [Wadhwani et al., 2012a]). Two Gram-negative strains, Escherichia coli (DSM 498) (K12) and Enterobacter helveticus (DSM 18396), and one Gram-positive strain, Kocuria rhizophila (DSM 348) were used. Bacteria were grown in Luria-Bertani medium at 37°C and 230 rpm overnight, and diluted in 1% trypticase soy broth (TSB). Peptide stock solutions (1024 μg/mL) were prepared in water. Microtiter plates (96 wells of 100 μl) were filled with 50 μl of 1% TSB, and serial 2-fold dilutions of peptides were arranged in columns. The two final rows of each plate remained without peptide, so that the penultimate data point served as the positive control (no peptide) and the final one as the negative control (not inoculated). To each well (except for the final row of each plate), an aliquot of 50 µl of a bacterial suspension containing 10^6 colony-forming units/mL was added to obtain a final volume of 100 µL. Antibacterial activities are expressed as the MIC and correspond to the lowest concentration of peptide, in micromolar units, at which no bacterial growth was detected after overnight incubation at 37°C. The tests were made in triplicate for each peptide, and the value shown is the lowest concentration where at least for two repetitions the growth was inhibited.
# [2] = system: Escherichia coli (DSM 498) (K12)
# Description: as §1
# [3] = system: Kocuria rhizophila (DSM 348)
# Description: as §1
# tested bacteria = details: E. coli DSM 498, E. helveticus, K. rhizophila
# Description: as §1
# erythrocytes = details: ref Sabatier et al., 1991; Wang et al., 2010; cited from earlier work
# Excerpt: Considering that Table 2 (and Figure 2 ) gives the percent of hemolysis as a function of concentration in µM, it can be noted that BP100 c ...
# [4] = ref Thorén et al., 2005; cited from earlier work
# Excerpt: Another kind of action of membrane-bound peptides is to facilitate fusion between membranes of vesicles or cells. We find here that BP100 has strong fusogenic activity ( Figure 4 ), even higher than the dedicated fusion peptide, FP23 from HIV-1, except in uncharged POPC/CHOL. […] These fusion results fit well with a previous comparison of different AMPs and CPPs ([Wadhwani et al., 2012b]). Obvio ...
# [5] = serial 2-fold dilution, 1% TSB, overnight 37°C, triplicate, lowest concentration inhibiting growth in at least two repetitions
compound,measurement,setting,value
CC[C@H](C)[C@H](NC(=O)[C@H](CCCCN)NC(=O)[C@H](CCCCN)NC(=O)[C@H](Cc1ccccc1)NC(=O)[C@H](CC(C)C)NC(=O)[C@H](CCCCN)NC(=O)[C@@H](N)CCCCN)C(=O)N[C@@H](CC(C)C)C(=O)N[C@@H](CCCCN)C(=O)N[C@@H](Cc1ccc(O)cc1)C(=O)N[C@@H](CC(C)C)C(N)=O [BP100],"HC10, concentration that induced 10% hemolysis",human erythrocytes,45 µM
same,Hemolysis,human erythrocytes; overview Figure 5,++
same,Toxicity (HeLa),HeLa cells,+++
same,HeLa cells: lowest tested concentration where dead HeLa cells were observed,HeLa cells,4 µM
same,MIC E. helveticus,[1]; [5],6.3 µM
same,MIC E. coli (DSM 498),[2]; [5],6.3 µM
same,MIC K. rhizophila,[3]; [5],3.2 µM
"CC[C@H](C)[C@H](NC(=O)CN)C(=O)NCC(=O)N[C@@H](CCCCN)C(=O)N[C@@H](Cc1ccccc1)C(=O)N[C@@H](CC(C)C)C(=O)N[C@@H](Cc1c[nH]cn1)C(=O)N[C@@H](CO)C(=O)N[C@@H](C)C(=O)N[C@@H](CCCCN)C(=O)N[C@@H](CCCCN)C(=O)N[C@@H](Cc1ccccc1)C(=O)NCC(=O)N[C@@H](CCCCN)C(=O)N[C@@H](C)C(=O)N[C@@H](Cc1ccccc1)C(=O)N[C@H](C(=O)NCC(=O)N[C@@H](CCC(=O)O)C(=O)N[C@H](C(=O)N[C@@H](CCSC)C(=O)N[C@@H](CC(N)=O)C(=O)N[C@@H](CO)C(=O)O)[C@@H](C)CC)C(C)C [MAG2, magainin 2] (H-GIGKFLHSAKKFGKAFVGEIMNS-OH)",Toxicity (HeLa),HeLa cells,+
same,HeLa cells: lowest tested concentration where dead HeLa cells were observed,HeLa cells,20 µM
CC(C)C[C@H](NC(=O)[C@H](C)NC(=O)[C@H](CCCCN)NC(=O)[C@H](CC(C)C)NC(=O)[C@H](C)NC(=O)[C@H](CC(C)C)NC(=O)[C@H](CCCCN)NC(=O)[C@H](CC(C)C)NC(=O)[C@H](C)NC(=O)[C@H](CC(C)C)NC(=O)[C@@H](N)CCCCN)C(=O)N[C@@H](CCCCN)C(=O)N[C@@H](C)C(=O)N[C@@H](C)C(=O)N[C@@H](CC(C)C)C(=O)N[C@@H](CCCCN)C(=O)N[C@@H](CC(C)C)C(=O)N[C@@H](C)C(N)=O [MAP],"HC10, concentration that induced 10% hemolysis",human erythrocytes,2 µM
same,Hemolysis,human erythrocytes; overview Figure 5,+++
same,Toxicity (HeLa),HeLa cells,+++
same,HeLa cells: lowest tested concentration where dead HeLa cells were observed,HeLa cells,2 µM
same,MIC E. helveticus,[1]; [5],3.2 µM
same,MIC E. coli (DSM 498),[2]; [5],25 µM
same,MIC K. rhizophila,[3]; [5],0.4 µM
CC[C@H](C)[C@H](NC(=O)[C@H](CCCCN)NC(=O)CNC(=O)[C@H](C)NC(=O)[C@@H](NC(=O)[C@H](CCCCN)NC(=O)[C@H](C)NC(=O)[C@@H](NC(=O)[C@H](CCCCN)NC(=O)CNC(=O)[C@H](C)NC(=O)[C@@H](NC(=O)[C@H](CCCCN)NC(=O)[C@H](C)NC(=O)[C@@H](NC(=O)[C@H](CCCCN)NC(=O)CNC(=O)[C@H](C)NC(=O)[C@@H](NC(=O)[C@@H](N)CCCCN)[C@@H](C)CC)[C@@H](C)CC)[C@@H](C)CC)[C@@H](C)CC)[C@@H](C)CC)C(=O)N[C@@H](C)C(N)=O [MSI-103] (H-KIAGKIAKIAGKIAKIAGKIA-NH2),Hemolysis,human erythrocytes,++
same,Toxicity (HeLa),HeLa cells,+++
same,MIC E. helveticus,[1]; DSM 18396,1.6 µM
same,MIC E. coli (DSM 498),[2]; DSM 498,12.5 µM
same,MIC K. rhizophila,[3]; DSM 348,0.8 µM
CC[C@H](C)[C@H](NC(=O)[C@H](C)NC(=O)CNC(=O)[C@H](C)NC(=O)[C@H](CCCCN)NC(=O)[C@H](CO)NC(=O)[C@H](C)NC(=O)[C@H](CCSC)NC(=O)CN)C(=O)N[C@@H](C)C(=O)NCC(=O)N[C@@H](CCCCN)C(=O)N[C@H](C(=O)N[C@@H](C)C(=O)N[C@@H](CCCCN)C(=O)N[C@H](C(=O)N[C@@H](C)C(=O)N[C@@H](CC(C)C)C(=O)N[C@@H](CCCCN)C(=O)N[C@@H](C)C(=O)N[C@@H](CC(C)C)C(N)=O)C(C)C)[C@@H](C)CC [PGLa] (H-GMASKAGAIAGKIAKVALKAL-NH2),"HC10, concentration that induced 10% hemolysis",human erythrocytes,16 µM
same,Hemolysis,human erythrocytes; overview Figure 5,++
same,Toxicity (HeLa),HeLa cells,+
same,HeLa cells: lowest tested concentration where dead HeLa cells were observed,HeLa cells,10 µM
same,MIC E. helveticus,[1]; [5],16.3 µM
same,MIC E. coli (DSM 498),[2]; [5],25 µM
same,MIC K. rhizophila,[3]; [5],4.1 µM
N=C(N)NCCC[C@H](NC(=O)CN)C(=O)N[C@@H](CCCCN)C(=O)N[C@@H](CCCCN)C(=O)N[C@@H](CCCNC(=N)N)C(=O)N[C@@H](CCCNC(=N)N)C(=O)N[C@@H](CCC(N)=O)C(=O)N[C@@H](CCCNC(=N)N)C(=O)N[C@@H](CCCNC(=N)N)C(=O)N[C@@H](CCCNC(=N)N)C(=O)N1CCC[C@H]1C(=O)N1CCC[C@H]1C(=O)N[C@@H](CCC(N)=O)C(=O)O [TAT],"HC10, concentration that induced 10% hemolysis",human erythrocytes,>>100 μM
same,Hemolysis,human erythrocytes; overview Figure 5,-
same,"Hemolytic activity, in words",human erythrocytes; peptide concentrations up to 100 µM,hardly any hemolytic activity
same,Toxicity (HeLa),HeLa cells,-
same,HeLa cells: lowest tested concentration where dead HeLa cells were observed,HeLa cells,> 20 μM and > 20 ^e μM
same,MIC E. helveticus,[1]; [5],500 µM
same,MIC E. coli (DSM 498),[2]; [5],>500 ^e μM
same,MIC K. rhizophila,[3]; [5],125 µM
same,MIC over the three tested strains,tested bacteria,at least 125 µM
same,"Hemolytic activity, in words (literature)",erythrocytes,did not show any hemolytic activity
Ac-GRKKRRQRRRPWQ-NH2 [TATP59W],"Lipid mixing, in words",[4],high extent of lipid mixing
